One series deals with MCF7. The series can be described thus: Cytotoxicity against human MCF7 cells assessed as reduction in cell viability measured after 24 hrs by MTT assay. To be noted: MCF7, 24 h. For orientation: Tetrazolium dyes change colour on reduction, which living cells bring about.
The subject of another series is MDA-MB-231. The series can be described thus: Cytotoxicity against human MDA-MB-231 cells assessed as reduction in cell viability measured after 24 hrs by MTT assay. It is filed as functional, cell-based. Conditions: MDA-MB-231, 24 h.
In the next series the test system is A549. The series can be described thus: Cytotoxicity against human A549 cells assessed as reduction in cell viability measured after 24 hrs by MTT assay. To be noted: A549, 24 h.
A further series has as its system HeLa. The series can be described thus: Cytotoxicity against human HeLa cells assessed as reduction in cell viability measured after 24 hrs by MTT assay. It is filed as functional, cell-based.
The test system of series [1] is HT-29. The series can be described thus: Cytotoxicity against human HT-29 cells assessed as reduction in cell viability measured after 24 hrs by MTT assay. To be noted: HT-29, 24 h. It is filed as functional, cell-based.
The nature of series [2]: Cytotoxicity against human MCF7/TxR cells assessed as reduction in cell viability measured after 24 hrs by MTT assay. Format: functional, cell-based.
Series [3] in a line: Cytotoxicity against human A549/TxR cells assessed as reduction in cell viability measured after 24 hrs by MTT assay. Format: functional, cell-based.
A short description of series [4]: Resistance index, ratio of IC50 for human MCF7/TxR cells to IC50 for human MCF7 cells. It is filed as functional.
Series [5] in a line: Resistance index, ratio of IC50 for human A549/TxR cells to IC50 for human A549 cells. Format: functional.
Series [6] in a line: Half-life in Sprague-Dawley rat at 10 mg/kg, iv by HPLC-MS/MS analysis. It is filed as ADME, organism-based. Conditions: in vivo.
Series [7] can be described thus: AUC in Sprague-Dawley rat at 10 mg/kg, iv by HPLC-MS/MS analysis. Conditions: in vivo. Further details: dose 10 mg/kg, route iv. It is filed as ADME, organism-based.
The nature of series [8]: Clearance in Sprague-Dawley rat at 10 mg/kg, iv by HPLC-MS/MS analysis. Format: ADME, organism-based. Conditions: in vivo.
Series [9] can be described thus: Tmax in Sprague-Dawley rat at 10 mg/kg, iv by HPLC-MS/MS analysis. To be noted: in vivo. Format: ADME, organism-based.
Series [10] is described as follows: Cmax in Sprague-Dawley rat at 10 mg/kg, iv by HPLC-MS/MS analysis. Format: ADME, organism-based. The arrangement: dose 10 mg/kg, route iv. To be noted: in vivo.
The species entered for another series is Sus scrofa. Kind of series: […] of porcine brain tubulin polymerization at 5 uM measured at 1 min interval for 60 mins by fluorescence assay.
Series [11] has as its system HT-29. Kind of series: Antitumor activity against human HT-29 cells xenografted in BALB/c nude mouse assessed as reduction in tumor weight at 10 mg/kg, ip administered as 2 days interval for 3 weeks and measured 3 weeks post-initial dosing relative to control. Further details: scale not given: the % may be the effect or the level left. It is filed as functional. (In general: Xenograft models place foreign cells or tissue in a host animal.)

Structures are written as SMILES. Calls of active or inactive are those of the source. The calls are words filed in the database; no cut-off is given here.

For orientation: IC50 means the concentration that gives 50% inhibition. What is called AUC is the area under the concentration-time curve, a measure of exposure. The Tmax is the time at which the peak concentration occurs. Usually Cmax stands for the peak of the concentration-time curve.

As to `COc1c(F)cc(Nc2cc3c(cc2C(N)=O)OCCO3)cc1F`, the concentration for half-maximal inhibition (IC50) in the series on MCF7 came to 12.2 µM; in the series on MDA-MB-231 it was 1.7 µM; with A549 it was 2.21 µM; with HeLa it was 6.12 µM; in the series with HT-29 [1], 0.86 µM.
On the same counts, the results for `COc1ccc(Nc2cc3c(cc2C(N)=O)OCCO3)cc1OC` are 13.1 µM, above 20 µM, 0.91 µM, 5.29 µM and 0.85 µM.
Taken in the same sequence, the figures for `COC(=O)c1cc2c(cc1Nc1ccc(OC)c(OC)c1)OCCO2` were 11.3 µM, 5.46 µM, 1 µM, 2.11 µM and 0.55 µM.
Taken in the same sequence, the figures for `COc1c(Br)cc(Nc2cc3c(cc2C(=O)O)OCO3)cc1Br` were 16 µM, 5.6 µM, 15.9 µM, 6.9 µM and 3.13 µM.
For the molecule `COC(=O)c1cc2c(cc1Nc1cc(F)c(OC)c(F)c1)OCCO2`, the IC50 with MCF7 is above 20 µM; in the series on MDA-MB-231, 4.1 µM; in the series on A549, 1.55 µM; in the series on HeLa, 5.22 µM; with HT-29 [1], 4.47 µM.
On the same counts, the results for `COC(=O)c1cc2c(cc1NC(=O)c1cc(Br)c(OC)c(Br)c1)OCCO2` are above 20 µM, above 20 µM, above 20 µM, above 20 µM and above 20 µM.
Taken in the same sequence, the figures for `COc1cc(C(=O)Nc2cc3c(cc2C(=O)NN)OCCO3)cc(OC)c1OC` were above 20 µM, above 20 µM, above 20 µM, above 20 µM and above 20 µM.
For `COc1cc([C@@H]2c3cc4c(cc3[C@H](O)[C@H]3COC(=O)[C@H]23)OCO4)cc(OC)c1OC` [PODOFILOX], the IC50 in the series on MCF7 was 0.039 µM; in the series with MDA-MB-231 it was 0.017 µM; in the series on A549, 0.059 µM; with HeLa, 0.044 µM; in the series with HT-29 [1], 0.023 µM; in [2] it was 0.043 µM. Further, in series [3], the IC50 came out at 0.073 µM. The results for the “Ratio IC50” value in [4] and in series [5] were 1.1 and 1.2, respectively. In addition, in series [6], the t1/2 worked out at 12.6 min. The AUC in [7] was 2950 µg/L.hr. Moreover, the CL in series [8] is 56.5 mL/min/kg. For the same molecule, the time of peak concentration (Tmax) in [9] was 6 min. Further, the Cmax in [10] was 3530 ng/mL.
Consider `COC(=O)c1cc2c(cc1Nc1cc(Br)c(OC)c(Br)c1)OCCO2`, for which the IC50 in the series on MCF7 was found to be 3.37 µM; in the series on MDA-MB-231, 6.46 µM; in the series with A549 it was 10.1 µM; in the series with HeLa it was 2.49 µM; with HT-29 [1], 1.47 µM.
Consider `COc1cc2c(c(OC)c1OC)-c1ccc(OC)c(=O)cc1[C@@H](NC(C)=O)CC2` [COLCHICINE], for which the IC50 with MDA-MB-231 worked out at 0.097 µM; with A549, 0.031 µM; in the series on HeLa, 0.008 µM; in the series on HT-29 [1], 0.25 µM.
As to `COc1cc(Nc2cc3c(cc2C(=O)NN)OCO3)cc(OC)c1OC`, the IC50 worked out at 1.97 µM in the series on MCF7; 1.36 µM with MDA-MB-231; 1.4 µM in the series with A549; 1.19 µM in the series with HeLa; 0.53 µM in the series with HT-29 [1].
On the same counts, the results for `COC(=O)c1cc(OC)c(OC)cc1Nc1cc(Br)c(OC)c(Br)c1` are above 20 µM, above 20 µM, above 20 µM, above 20 µM and above 20 µM.
Taken in the same sequence, the figures for `COC(=O)c1cc2c(cc1Nc1ccc(OC)cc1)OCCO2` were above 20 µM, above 20 µM, above 20 µM, above 20 µM and above 20 µM.
On the same counts, the results for `COc1c(F)cc(C(=O)Nc2cc3c(cc2C(=O)NN)OCCO3)cc1F` are above 20 µM, above 20 µM, above 20 µM, above 20 µM and above 20 µM.
As to `NNC(=O)c1cc2c(cc1Nc1ccc3c(c1)OCO3)OCCO2`, the IC50 in the series on MCF7 is above 20 µM; in the series on MDA-MB-231, above 20 µM; with A549, above 20 µM; with HeLa it was 3.54 µM; with HT-29 [1], 1.02 µM.
In the case of `COC(=O)c1cc(OC)c(OC)cc1Nc1cc(OC)c(OC)c(OC)c1`, the IC50 with MCF7, in the series with MDA-MB-231, in the series on A549, in the series on HeLa and with HT-29 [1] was above 20 µM in each case.
Consider `COC(=O)c1cc2c(cc1NC(=O)c1cc(F)c(OC)c(F)c1)OCCO2`, for which the IC50 in the series with MCF7, in the series with MDA-MB-231, in the series with A549, in the series with HeLa and in the series on HT-29 [1] was above 20 µM in each case.
As to `COc1cc(Nc2cc3c(cc2C(=O)O)OCCO3)cc(OC)c1OC`, the IC50 in the series with MCF7 was 6.76 µM; in the series with MDA-MB-231, 6.79 µM; in the series with A549, 11.5 µM; in the series with HeLa, 2.91 µM; in the series with HT-29 [1], 2.16 µM.
As for `COC(=O)c1cc2c(cc1Nc1ccc3c(c1)OCCO3)OCCO2`, the IC50 is 8.6 µM in the series with MCF7; 16.6 µM in the series on MDA-MB-231; 6.36 µM with A549; 12.8 µM in the series on HeLa; 4.64 µM in the series with HT-29 [1].
As for `COc1c(F)cc(Nc2cc3c(cc2C(=O)NN)OCCO3)cc1F`, the half-maximal inhibitory concentration (IC50) was 15.4 µM with MCF7; 5.92 µM in the series on MDA-MB-231; 1.2 µM in the series with A549; 2.56 µM in the series on HeLa; 1.31 µM with HT-29 [1].
Take `CC(=O)O[C@H]1C(=O)[C@@]2(C)[C@H]([C@H](OC(=O)c3ccccc3)[C@]3(O)C[C@H](OC(=O)[C@H](O)[C@@H](NC(=O)c4ccccc4)c4ccccc4)C(C)=C1C3(C)C)[C@]1(OC(C)=O)CO[C@@H]1C[C@@H]2O` [PACLITAXEL]: the half-inhibitory concentration (IC50) in the series on MDA-MB-231 is 0.007 µM; in the series with HeLa, 0.039 µM; in the series on HT-29 [1], 0.011 µM; in series [2] it was 8.35 µM; in [3], 2.92 µM. The result in the series listed under Sus scrofa was Active. Moreover, the Activity with HT-29 [11] is recorded as 77.1%.
`COc1ccc(Nc2cc3c(cc2C(=O)NN)OCCO3)cc1`: the IC50 with MCF7, with MDA-MB-231, in the series with A549, with HeLa and in the series on HT-29 [1] was above 20 µM in each case.
In the case of `COc1c(Br)cc(Nc2cc3c(cc2C(=O)NN)OCCO3)cc1Br`, the IC50 with MCF7 worked out at 0.44 µM; with MDA-MB-231, 0.47 µM; in the series with A549 it was 1.14 µM; in the series with HeLa, 0.24 µM; in the series with HT-29 [1] it was 0.23 µM.
Regarding `COC(=O)c1cc2c(cc1Nc1cc(Br)c(OC)c(Br)c1)OCO2`, the IC50 in the series with MCF7 came to 6.46 µM; with MDA-MB-231 it was 11.7 µM; in the series on A549, 2.64 µM; with HeLa, 3.4 µM; with HT-29 [1], 2.02 µM.
On the same counts, the results for `COC(=O)c1cc2c(cc1NC(=O)c1cc(OC)c(OC)c(OC)c1)OCCO2` are above 20 µM, above 20 µM, above 20 µM, above 20 µM and above 20 µM.
Taken in the same sequence, the figures for `COC(=O)c1cc2c(cc1Nc1cc(F)c(OC)c(F)c1)OCO2` were above 20 µM, above 20 µM, above 20 µM, 10.6 µM and 8.53 µM.
For `COc1cc(C(=O)Nc2cc3c(cc2C(=O)O)OCCO3)cc(OC)c1OC`, the half-inhibitory concentration (IC50) in the series on MCF7, with MDA-MB-231, with A549, in the series with HeLa and in the series on HT-29 [1] was above 20 µM in each case.
Take `COc1cc(Nc2cc3c(cc2C(=O)NN)OCCO3)cc(OC)c1OC`: the IC50 in the series with MCF7 was 0.37 µM; with MDA-MB-231, 0.36 µM; with A549, 0.74 µM; with HeLa it was 0.32 µM; with HT-29 [1], 0.13 µM.
As to `COC(=O)c1cc2c(cc1Nc1cc(OC)c(OC)c(OC)c1)OCO2`, the IC50 in the series on MCF7 was 0.98 µM; in the series on MDA-MB-231, 0.74 µM; in the series on A549, 2.67 µM; in the series on HeLa, 0.39 µM; in the series on HT-29 [1] it was 0.38 µM.
Taken in the same sequence, the figures for `COc1c(F)cc(Nc2cc3c(cc2C(=O)NN)OCO3)cc1F` were above 20 µM, above 20 µM, above 20 µM, 5.88 µM and 3.65 µM.
On the same counts, the results for `COC(=O)c1cc2c(cc1Nc1ccc3c(c1)OCO3)OCCO2` are 11.2 µM, 3.13 µM, above 20 µM, 5.55 µM and 4.61 µM.
On the same counts, the results for `COc1cc(Nc2cc3c(cc2C(=O)O)OCO3)cc(OC)c1OC` are 15.1 µM, 2.3 µM, 5.42 µM, 5.18 µM and 1.41 µM.

Values taken from ChEMBL document CHEMBL5137013 (Eur J Med Chem, 2022).
